From patent US11970513B2, “Advanced glycation end product analogues” (Phytoquest Limited, priority 2012, dated 2024)
Like-named read-outs stand apart in the source and are kept apart here.

Tests used:
α-D-giucosidase = target: T1, α-D-giucosidase (Saccharomyces cerevisiae, UniProt P53341); test: Glycosidase assay, α-D-glucosidase (Saccharomyces cerevisiae); assay type: biochemical; settings: 0.2 mM, negative value = stabilisation/promotion, read-out: percentage inhibition
T1 construct: purchased Sigma
Method: (§1) All enzymes and para-nitrophenyl substrates were purchased from Sigma, with the exception of beta-mannosidase which came from Megazyme. Enzymes were assayed at 27° C. in 0.1M citric acid/0.2M disodium hydrogen phosphate buffers at the optimum pH for the enzyme. The incubation mixture consisted of 10 μl enzyme solution, 10 μl of 1 mg/ml aqueous solution of sample and 50 μl of the appropriate 5 mM para-nitrophenyl substrate made up in buffer at the optimum pH for the enzyme. The reactions were stopped by addition of 70 μl 0.4M glycine (pH 10.4) during the exponential phase of the reaction, which had been determined at the beginning using uninhibited assays in which water replaced inhibitor. Final absorbances were read at 405 nm using a Versamax microplate reader (Molecular Devices). Assays were carried out in triplicate, and the values given are means of the three replicates per assay. The method was carried out as described in Watson et al. (1997) Phytochemistry 46 (2): 255-259.

α-D-glucosidase [1] = test: Glycosidase assay, α-D-glucosidase (Bacillus sterothermophilus); assay type: biochemical; settings: 0.2 mM, negative value = stabilisation/promotion
Method: as §1

α-D-glucosidase [2] = target: T2, α-D-glucosidase (Oryza sativa subsp. japonica, UniProt Q653V7); test: Glycosidase assay, α-D-glucosidase (rice); assay type: biochemical; settings: 0.2 mM, Rice (Oryza saliva), negative value = stabilisation/promotion, read-out: percentage inhibition
T2 construct: purchased Sigma
Method: as §1

β-D-glucosidase = test: Glycosidase assay, β-D-glucosidase (almond); assay type: biochemical; settings: 0.2 mM, Almond (Prunus sp.), negative value = stabilisation/promotion
Method: as §1

α-D-galactosidase = target: T3, α-D-galactosidase (Coffea arabica, UniProt Q42656); test: Glycosidase assay, α-D-galactosidase (green coffee bean); assay type: biochemical; settings: 0.2 mM, Green coffee bean (Coffea sp.), negative value = stabilisation/promotion, read-out: percentage inhibition
T3 construct: purchased Sigma
Method: as §1

β-D-galactosidase = test: Glycosidase assay, β-D-galactosidase (bovine liver); assay type: biochemical; settings: 0.2 mM, negative value = stabilisation/promotion
Method: as §1

α-L-fucosidase = target: T4, α-L-fucosidase (Bos taurus, UniProt Q2KIM0); test: Glycosidase assay, α-L-fucosidase (bovine kidney); assay type: biochemical; settings: 0.2 mM, negative value = stabilisation/promotion, read-out: percentage inhibition
T4 construct: purchased Sigma
T4 sequence (Q2KIM0 23-468): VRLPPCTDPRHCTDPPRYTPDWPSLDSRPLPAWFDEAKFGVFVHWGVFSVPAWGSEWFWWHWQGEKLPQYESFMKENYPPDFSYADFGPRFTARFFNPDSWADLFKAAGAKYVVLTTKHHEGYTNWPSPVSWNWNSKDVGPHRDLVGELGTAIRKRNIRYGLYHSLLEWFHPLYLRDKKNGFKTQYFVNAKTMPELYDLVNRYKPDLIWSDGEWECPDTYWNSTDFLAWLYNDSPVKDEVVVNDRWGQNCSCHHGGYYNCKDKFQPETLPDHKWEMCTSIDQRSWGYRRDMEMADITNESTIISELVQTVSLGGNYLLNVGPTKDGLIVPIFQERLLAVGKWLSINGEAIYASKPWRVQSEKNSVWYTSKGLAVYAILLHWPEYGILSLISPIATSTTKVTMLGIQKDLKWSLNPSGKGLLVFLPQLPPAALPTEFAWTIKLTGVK
Method: as §1

α-D-mannosidase = target: T5, α-D-mannosidase (Canavalia ensiformis, UniProt C0HJB3); test: Glycosidase assay, α-D-mannosidase (jack bean); assay type: biochemical, Jack bean (Canavalia ensiformis); settings: read-out: percentage inhibition
T5 construct: purchased Sigma
T5 sequence (C0HJB3 1-981): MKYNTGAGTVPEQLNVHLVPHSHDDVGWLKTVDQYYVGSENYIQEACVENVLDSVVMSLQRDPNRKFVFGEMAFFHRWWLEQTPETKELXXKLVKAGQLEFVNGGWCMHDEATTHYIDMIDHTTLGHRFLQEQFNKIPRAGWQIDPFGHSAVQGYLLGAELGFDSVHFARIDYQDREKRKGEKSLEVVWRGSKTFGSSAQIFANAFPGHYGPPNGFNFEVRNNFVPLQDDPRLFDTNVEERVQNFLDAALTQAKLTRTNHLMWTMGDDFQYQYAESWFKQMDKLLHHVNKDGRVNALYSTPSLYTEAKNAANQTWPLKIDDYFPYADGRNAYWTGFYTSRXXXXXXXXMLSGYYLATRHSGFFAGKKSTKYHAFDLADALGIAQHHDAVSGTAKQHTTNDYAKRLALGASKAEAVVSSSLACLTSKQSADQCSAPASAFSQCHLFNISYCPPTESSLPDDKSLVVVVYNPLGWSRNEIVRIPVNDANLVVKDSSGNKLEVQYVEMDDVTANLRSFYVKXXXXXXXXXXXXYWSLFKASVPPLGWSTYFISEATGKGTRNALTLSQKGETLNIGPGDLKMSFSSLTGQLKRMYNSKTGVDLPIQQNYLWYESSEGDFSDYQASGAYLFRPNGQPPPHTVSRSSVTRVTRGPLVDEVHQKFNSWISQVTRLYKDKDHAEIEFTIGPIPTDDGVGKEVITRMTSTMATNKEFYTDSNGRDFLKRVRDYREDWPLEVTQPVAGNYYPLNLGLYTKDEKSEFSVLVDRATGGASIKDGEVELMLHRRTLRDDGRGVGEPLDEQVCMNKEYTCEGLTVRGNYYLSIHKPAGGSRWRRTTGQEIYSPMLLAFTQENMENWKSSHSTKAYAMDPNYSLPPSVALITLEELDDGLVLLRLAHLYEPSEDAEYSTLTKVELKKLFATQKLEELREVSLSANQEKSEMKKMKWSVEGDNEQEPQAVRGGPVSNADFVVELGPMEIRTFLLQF
Method: as §1

β-D-mannosidase = test: Glycosidase assay, β-D-mannosidase (Cellullomonas fimi); assay type: biochemical; settings: 0.2 mM, negative value = stabilisation/promotion
Method: as §1

Naringinase = test: Glycosidase assay, naringinase (Penicillium decumbens); assay type: biochemical; settings: 0.2 mM, negative value = stabilisation/promotion
Method: as §1

[3] = tested on: N-acetyl-β-D-glucosaminidase; test: Glycosidase assay, N-acetyl-β-D-glucosaminidase (bovine kidney); assay type: biochemical; settings: for percentage inhibition: 0.2 mM, N-acetyl-β-D-glucosaminidase, Bovine kidney, negative value = stabilisation/promotion; for IC50: bovine hexosaminidase, read-out: IC50 against the bovine hexosaminidase
Method: as §1

[4] = tested on: N-acetyl-β-D-glucosaminidase; test: Glycosidase assay, N-acetyl-β-D-glucosaminidase (jack bean); assay type: biochemical; settings: 0.2 mM, negative value = stabilisation/promotion
Method: as §1

[5] = target: T6, N-acetyl-β-D-hexosaminidase (Aspergillus oryzae, UniProt Q8J2T0); test: Glycosidase assay, N-acetyl-β-D-hexosaminidase (Aspergillus oryzae); assay type: biochemical; settings: 0.2 mM, negative value = stabilisation/promotion, read-out: percentage inhibition
T6 construct: purchased Sigma
Method: as §1

Amyloglucosidase = target: T7, Amyloglucosidase (Aspergillus niger, UniProt P69328); test: Glycosidase assay, amyloglucosidase (Aspergillus niger); assay type: biochemical; settings: 0.2 mM, negative value = stabilisation/promotion, read-out: percentage inhibition
T7 construct: purchased Sigma
Method: as §1

β-glucuronidase [6] = target: T8, β-glucuronidase (Bos taurus, UniProt A3KMY8); test: Glycosidase assay, β-glucuronidase (bovine liver); assay type: biochemical; settings: for inhibition at 200 µM: read-out: percentage inhibition
T8 sequence (A3KMY8 1-652): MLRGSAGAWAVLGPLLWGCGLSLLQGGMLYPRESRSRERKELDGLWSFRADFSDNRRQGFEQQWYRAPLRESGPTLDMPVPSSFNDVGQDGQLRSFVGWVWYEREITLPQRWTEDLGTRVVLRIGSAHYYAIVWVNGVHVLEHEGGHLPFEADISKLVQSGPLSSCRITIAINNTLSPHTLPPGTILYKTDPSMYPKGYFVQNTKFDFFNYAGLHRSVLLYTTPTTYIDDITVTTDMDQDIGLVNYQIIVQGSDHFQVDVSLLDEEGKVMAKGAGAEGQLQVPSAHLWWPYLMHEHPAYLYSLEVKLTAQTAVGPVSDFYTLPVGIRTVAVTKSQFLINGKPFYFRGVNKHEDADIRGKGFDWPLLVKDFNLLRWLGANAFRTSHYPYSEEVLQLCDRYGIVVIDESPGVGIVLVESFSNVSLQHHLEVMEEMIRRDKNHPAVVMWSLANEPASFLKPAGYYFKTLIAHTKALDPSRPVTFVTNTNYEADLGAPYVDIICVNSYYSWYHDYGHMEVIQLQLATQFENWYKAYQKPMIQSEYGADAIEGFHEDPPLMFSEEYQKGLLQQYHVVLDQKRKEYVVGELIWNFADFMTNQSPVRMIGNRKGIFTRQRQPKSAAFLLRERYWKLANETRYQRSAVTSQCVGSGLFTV
Method: as §1

β-glucuronidase [7] = target: T9, β-glucuronidase (Escherichia coli, UniProt P05804); test: Glycosidase assay, β-glucuronidase (E. coli); assay type: biochemical; settings: 0.2 mM, negative value = stabilisation/promotion, read-out: percentage inhibition
T9 construct: purchased Sigma
Method: as §1

glycogen phosphorylase b = target: T10, glycogen phosphorylase b (Oryctolagus cuniculus, UniProt P00489); test: Glycogen phosphorylase (GPb) activity; assay type: biochemical
T10 construct: purchased Sigma-Aldrich Fine Chemicals (St. Louis, Mo, USA)
T10 sequence (P00489 1-843): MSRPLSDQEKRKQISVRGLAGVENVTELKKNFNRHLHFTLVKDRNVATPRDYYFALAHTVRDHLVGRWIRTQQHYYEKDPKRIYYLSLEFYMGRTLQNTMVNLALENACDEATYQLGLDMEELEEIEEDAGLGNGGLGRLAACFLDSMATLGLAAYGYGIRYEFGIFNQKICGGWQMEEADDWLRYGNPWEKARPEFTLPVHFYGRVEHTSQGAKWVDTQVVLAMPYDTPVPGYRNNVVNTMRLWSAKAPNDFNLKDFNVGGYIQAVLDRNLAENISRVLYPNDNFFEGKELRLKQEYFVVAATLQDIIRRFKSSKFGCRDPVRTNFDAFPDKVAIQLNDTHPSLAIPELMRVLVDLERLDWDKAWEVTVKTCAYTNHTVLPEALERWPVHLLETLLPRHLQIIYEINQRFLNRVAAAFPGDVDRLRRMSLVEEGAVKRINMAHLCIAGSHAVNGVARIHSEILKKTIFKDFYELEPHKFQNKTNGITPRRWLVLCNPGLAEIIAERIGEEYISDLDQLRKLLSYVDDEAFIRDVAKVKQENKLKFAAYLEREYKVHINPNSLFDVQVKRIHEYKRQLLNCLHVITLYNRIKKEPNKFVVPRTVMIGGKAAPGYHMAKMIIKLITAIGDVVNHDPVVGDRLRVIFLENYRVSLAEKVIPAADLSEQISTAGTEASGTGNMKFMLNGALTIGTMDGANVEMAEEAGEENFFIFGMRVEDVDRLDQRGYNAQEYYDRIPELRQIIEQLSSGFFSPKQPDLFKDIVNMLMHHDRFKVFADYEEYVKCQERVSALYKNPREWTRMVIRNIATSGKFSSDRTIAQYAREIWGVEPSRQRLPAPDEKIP
Method: N2-beta-D-Fructopyranos-1-yl-Arginine and 1-Deoxy-1-(N-γ-aminobutyric acid)fructose were tested on glycogen phosphorylase and found to give weak inhibition (14.2 and 5.5% respectively at 400 μM.
Materials. Phosphoglucomutase, glucose-6-phosphate dehydrogenase, glucose-1,6-bisphosphate, glycogen phosphorylase b, α-D-glucose 1-phosphate dipotassium salt hydrate were purchased from Sigma-Aldrich Fine Chemicals (St. Louis, Mo, USA). Glycogen and caffeine were purchased from Nacalai Tesque (Kyoto, Japan). Other chemicals were from Wako Pure Chemical industries (Osaka, Japan).
Measurement of GPb activity. GPb activity was measured in the direction of glycogenolysis using 2 mg/mL glycogen as the substrate in 45 mM phosphate buffer at pH 6.8, containing 0.1 mM EDTA. […] The rate of enzyme-catalysed reaction in the medium can be followed as the increase in absorbance at 340 nm and 25° C. due to the formation of NADPH. GPb activity was also measured in the direction of glycogen synthesis using 25 mM glucose-1-P as substrate in a 250 mM Tris-malate buffer (pH 6.8), containing 5 mg/mL glycogen, 1 mM AMP, 15 mM cysteine, and glycogen phosphorylase b. […] Pi was measured by the Fiske-Subbarow method. The rate of enzyme-catalysed reaction in the medium was followed as the Increase in absorbance at 660 nm.

T6 sequence (Q8J2T0 97-600): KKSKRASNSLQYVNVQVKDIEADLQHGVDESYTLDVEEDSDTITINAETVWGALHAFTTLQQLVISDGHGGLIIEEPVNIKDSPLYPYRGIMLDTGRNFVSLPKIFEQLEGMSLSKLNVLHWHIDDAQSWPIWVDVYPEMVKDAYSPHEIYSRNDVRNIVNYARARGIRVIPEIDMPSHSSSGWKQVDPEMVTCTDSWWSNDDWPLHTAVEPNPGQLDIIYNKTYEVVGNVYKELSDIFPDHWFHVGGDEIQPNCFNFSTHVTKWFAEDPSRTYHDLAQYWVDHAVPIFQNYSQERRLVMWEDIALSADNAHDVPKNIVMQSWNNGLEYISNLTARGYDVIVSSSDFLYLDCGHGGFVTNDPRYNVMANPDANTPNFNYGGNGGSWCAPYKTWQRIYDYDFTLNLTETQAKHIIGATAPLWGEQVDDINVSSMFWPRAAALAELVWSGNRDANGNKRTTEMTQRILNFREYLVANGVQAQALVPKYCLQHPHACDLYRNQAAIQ
T1 sequence (P53341 whole entry): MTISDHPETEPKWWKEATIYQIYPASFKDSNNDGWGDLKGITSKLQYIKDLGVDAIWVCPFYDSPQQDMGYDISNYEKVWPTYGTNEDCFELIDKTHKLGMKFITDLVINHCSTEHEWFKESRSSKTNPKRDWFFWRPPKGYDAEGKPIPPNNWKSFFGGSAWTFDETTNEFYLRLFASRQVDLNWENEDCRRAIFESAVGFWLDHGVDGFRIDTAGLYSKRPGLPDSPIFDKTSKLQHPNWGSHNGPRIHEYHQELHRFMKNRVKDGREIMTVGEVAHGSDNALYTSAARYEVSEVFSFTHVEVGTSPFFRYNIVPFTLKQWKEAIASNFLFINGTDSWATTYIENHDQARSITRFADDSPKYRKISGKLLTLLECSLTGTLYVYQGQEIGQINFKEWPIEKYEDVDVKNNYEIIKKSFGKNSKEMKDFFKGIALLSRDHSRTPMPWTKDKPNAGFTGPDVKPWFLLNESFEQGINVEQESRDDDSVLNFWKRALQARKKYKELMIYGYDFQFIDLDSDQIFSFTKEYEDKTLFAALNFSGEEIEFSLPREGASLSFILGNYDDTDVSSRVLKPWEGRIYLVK
T7 sequence (P69328 25-640): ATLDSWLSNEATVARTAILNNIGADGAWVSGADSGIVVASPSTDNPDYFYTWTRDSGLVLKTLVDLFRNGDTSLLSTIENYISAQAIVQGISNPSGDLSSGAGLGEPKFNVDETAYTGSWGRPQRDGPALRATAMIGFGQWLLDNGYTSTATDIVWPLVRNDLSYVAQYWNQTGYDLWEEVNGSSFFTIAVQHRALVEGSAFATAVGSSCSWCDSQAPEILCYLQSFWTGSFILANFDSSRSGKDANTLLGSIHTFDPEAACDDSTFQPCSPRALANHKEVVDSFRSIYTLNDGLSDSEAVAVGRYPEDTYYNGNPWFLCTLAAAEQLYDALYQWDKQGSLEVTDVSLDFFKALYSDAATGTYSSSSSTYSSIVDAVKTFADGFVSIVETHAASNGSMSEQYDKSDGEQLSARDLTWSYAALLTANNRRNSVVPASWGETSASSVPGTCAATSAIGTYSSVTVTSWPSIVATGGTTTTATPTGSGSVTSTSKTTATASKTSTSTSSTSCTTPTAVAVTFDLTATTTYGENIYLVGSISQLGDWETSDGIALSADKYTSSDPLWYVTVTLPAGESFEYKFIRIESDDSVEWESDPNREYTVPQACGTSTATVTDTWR
T3 sequence (Q42656 16-378): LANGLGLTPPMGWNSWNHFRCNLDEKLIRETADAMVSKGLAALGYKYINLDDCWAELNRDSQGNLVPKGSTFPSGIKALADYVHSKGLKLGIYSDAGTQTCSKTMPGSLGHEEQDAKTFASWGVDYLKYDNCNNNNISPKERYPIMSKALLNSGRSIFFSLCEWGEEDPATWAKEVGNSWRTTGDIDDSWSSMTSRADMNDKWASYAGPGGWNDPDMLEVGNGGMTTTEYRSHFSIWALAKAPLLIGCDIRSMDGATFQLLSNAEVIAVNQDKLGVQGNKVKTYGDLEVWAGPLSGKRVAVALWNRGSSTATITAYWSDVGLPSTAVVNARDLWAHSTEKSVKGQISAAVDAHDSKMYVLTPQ
T9 sequence (P05804 whole entry): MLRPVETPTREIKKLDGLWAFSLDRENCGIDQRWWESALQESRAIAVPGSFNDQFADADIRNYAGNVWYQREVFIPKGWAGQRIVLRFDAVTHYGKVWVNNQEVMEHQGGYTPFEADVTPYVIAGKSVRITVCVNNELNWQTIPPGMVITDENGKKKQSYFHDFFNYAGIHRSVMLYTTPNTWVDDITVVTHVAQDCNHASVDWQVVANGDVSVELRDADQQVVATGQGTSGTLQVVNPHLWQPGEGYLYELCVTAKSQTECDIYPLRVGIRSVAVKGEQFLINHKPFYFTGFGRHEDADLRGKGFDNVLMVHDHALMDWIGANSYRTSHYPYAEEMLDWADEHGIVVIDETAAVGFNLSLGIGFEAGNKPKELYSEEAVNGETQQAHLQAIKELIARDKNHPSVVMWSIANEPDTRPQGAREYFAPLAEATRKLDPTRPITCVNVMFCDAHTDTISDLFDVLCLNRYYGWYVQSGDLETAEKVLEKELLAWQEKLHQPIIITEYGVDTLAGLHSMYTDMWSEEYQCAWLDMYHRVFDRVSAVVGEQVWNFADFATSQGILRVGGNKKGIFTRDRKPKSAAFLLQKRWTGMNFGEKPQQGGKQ
T2 sequence (Q653V7 34-885): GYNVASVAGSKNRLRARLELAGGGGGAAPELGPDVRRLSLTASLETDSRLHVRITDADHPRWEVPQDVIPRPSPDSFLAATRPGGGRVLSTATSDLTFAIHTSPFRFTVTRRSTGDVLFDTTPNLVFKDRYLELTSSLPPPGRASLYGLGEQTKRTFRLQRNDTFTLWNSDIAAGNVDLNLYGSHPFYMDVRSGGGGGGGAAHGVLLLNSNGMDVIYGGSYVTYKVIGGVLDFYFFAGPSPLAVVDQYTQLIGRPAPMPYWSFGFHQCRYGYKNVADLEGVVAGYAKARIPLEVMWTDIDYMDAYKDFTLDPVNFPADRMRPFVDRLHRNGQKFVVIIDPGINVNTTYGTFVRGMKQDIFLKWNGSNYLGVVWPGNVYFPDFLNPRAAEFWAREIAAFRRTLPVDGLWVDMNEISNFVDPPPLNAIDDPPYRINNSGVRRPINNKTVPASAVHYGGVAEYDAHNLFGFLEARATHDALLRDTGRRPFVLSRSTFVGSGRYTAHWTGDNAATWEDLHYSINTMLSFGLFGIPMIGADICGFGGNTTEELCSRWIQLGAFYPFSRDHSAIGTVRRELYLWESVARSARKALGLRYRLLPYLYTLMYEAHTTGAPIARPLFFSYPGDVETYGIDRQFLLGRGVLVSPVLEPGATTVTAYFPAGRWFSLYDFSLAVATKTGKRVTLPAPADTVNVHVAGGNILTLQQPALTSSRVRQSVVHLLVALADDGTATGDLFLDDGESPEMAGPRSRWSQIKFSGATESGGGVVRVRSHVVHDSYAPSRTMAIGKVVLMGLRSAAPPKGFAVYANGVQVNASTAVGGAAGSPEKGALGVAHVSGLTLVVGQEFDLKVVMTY

Row | Compound | inhibition at 200 µM (α-D-giucosidase) | percentage inhibition (α-D-glucosidase [1]) | inhibition at 200 µM (α-D-glucosidase [2]) | percentage inhibition (β-D-glucosidase) | inhibition at 200 µM (α-D-galactosidase) | percentage inhibition (β-D-galactosidase) | inhibition at 200 µM (α-L-fucosidase) | inhibition at 200 µM (α-D-mannosidase) | percentage inhibition (β-D-mannosidase) | percentage inhibition (Naringinase) | percentage inhibition [3] | IC50 [3] | percentage inhibition [4] | inhibition at 200 µM [5] | inhibition at 200 µM (Amyloglucosidase) | inhibition at 200 µM (β-glucuronidase [6]) | inhibition at 200 µM (β-glucuronidase [7]) | inhibition at 400 µM (glycogen phosphorylase b) | inhibition at 200 µM (α-D-mannosidase; 0.2 mM, α-D-mannosidase, Jack bean (Canavalia ensiformis), negative value = stabilisation/promotion) | IC50 (β-glucuronidase [6]; bovine β-glucuronidase, read-out: IC50 against the bovine β-glucuronidase)
1 | O=C(O)CCCNCC1(O)OCC(O)C(O)C1O (stereo not shown) [1-Deoxy-1-(N-γ-aminobutyric acid)fructose] | -4.2% | 0.7% | -4.2% | −0.9% | -7.1% | 1.3% | -1.3% | -6.2% | −10.3% | 0.2% | 55.3% | 200 µM | −6.3% | -19.2% | -2.9% | -1.2% | -0.8% | 5.5% |  | 
2 | N=C(N)NCCCC(NCC1(O)OCC(O)C(O)C1O)C(=O)O [N2-β-D-Fructopyranos-1-yl-Arginine, 5-carbamimidamido-2-{[(2,3,4,5-tetrahydroxytetrahydro-2H-pyran-2-yl)methyl]amino}pentanoic acid] | -1.4% | −1.7% | -6% | 7.6% | 3.4% | −3.9% | -9.3% |  | −8.1% | 4.1% | 88.5% | 7.7 µM | −0.8% | -15.3% | 15% | 85.2% | -9% | 14.2% | 35.2% | 101 µM
